Patent US10058550B2, “Methods of treating heart failure” (priority 2015, dated 2018)

Target: human APJ receptor (Homo sapiens (Human), UniProt P35414)
Experiment: biochemical
Type: biochemical
Details: read-out: Activity hAPJ SPA EC50 IP
Procedure, shortened: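 Membranes from CHO cells stably expressing cloned human APJ were incubated with WGA SPA beads in 20 mM HEPES pH 7.5, 5 mM MgCl2, 0.1% BSA, 200 mM NaCl and 3 μM GDP. Reaction started with 0.2 nM [35S]GTPγS ± ligands, 90 min at RT. EC50 obtained by non-linear regression as mean of independent experiments.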

Chain of human APJ receptor (P35414 whole entry): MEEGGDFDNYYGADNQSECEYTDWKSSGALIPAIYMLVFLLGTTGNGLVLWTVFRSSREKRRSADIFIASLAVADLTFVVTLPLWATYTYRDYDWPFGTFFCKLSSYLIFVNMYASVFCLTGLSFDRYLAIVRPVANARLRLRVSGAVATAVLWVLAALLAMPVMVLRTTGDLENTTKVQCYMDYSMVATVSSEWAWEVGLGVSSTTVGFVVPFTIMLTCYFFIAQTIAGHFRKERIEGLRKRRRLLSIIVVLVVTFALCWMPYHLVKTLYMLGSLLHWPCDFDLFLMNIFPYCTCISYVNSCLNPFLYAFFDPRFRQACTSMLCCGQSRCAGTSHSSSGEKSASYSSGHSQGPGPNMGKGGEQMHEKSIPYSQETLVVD

| Molecule | EC50 |
| --- | --- |
| COc1cccc(OC)c1-n1c(NS(=O)(=O)[C@@H](C)[C@H](O)c2nc(C)c(C)s2)nnc1-c1cncc(C)c1 (single isomer, unassigned) [Example 294.0] | 11 nM |
| COc1ncnc(OC)c1-n1c(NS(=O)(=O)[C@@H](C)[C@H](OC)c2ncc(C)cn2)nnc1-c1cccc(C)n1 [Example 90.0, (1R,2S)-N-(4-(4,6-dimethoxypyrimidin-5-yl)-5-(6-methylpyridin-2-yl)-4H-1,2,4-triazol-3-yl)-1-methoxy-1-(5-methylpyrimidin-2-yl)propane-2-sulfonamide] | 2.4 nM |
| COc1cccc(OC)c1-n1c(NS(=O)(=O)[C@H](C)[C@H](OC(C)C)c2ccc(Cl)cn2)nnc1-c1cncc(C)c1 (single isomer, unassigned) [Example 745.0, (1R,2R)-1-(5-chloropyridin-2-yl)-N-(4-(2,6-dimethoxyphenyl)-5-(5-methylpyridin-3-yl)-4H-1,2,4-triazol-3-yl)-1-isopropoxypropane-2-sulfonamide or (1S,2S)-1-(5-chloropyridin-2-yl)-N-(4-(2,6-dimethoxyphenyl)-5-(5-methylpyridin-3-yl)-4H-1,2,4-triazol-3-yl)-1-isopropoxypropane-2-sulfonamide] | 0.4 nM |
| COc1cccc(-c2nnc(NS(=O)(=O)[C@@H](C)[C@H](OC)c3ncc(C)cn3)n2-c2c(OC)ccnc2OC)n1 (atropisomer, axis not shown) [Example 636.0, (1R,2S, P)-N-(4-(2,4-dimethoxypyridin-3-yl)-5-(6-methoxypyridin-2-yl)-4H-1,2,4-triazol-3-yl)-1-methoxy-1-(5-methylpyrimidin-2-yl)propane-2-sulfonamide and (1R,2S, M)-N-(4-(2,4-dimethoxypyridin-3-yl)-5-(6-methoxypyridin-2-yl)-4H-1,2,4-triazol-3-yl)-1-methoxy-1-(5-methylpyrimidin-2-yl)propane-2-sulfonamide] | 0.4 nM |
| COc1cccc(-c2nnc(NS(=O)(=O)[C@@H](C)[C@H](O)c3ccc(F)cc3)n2-c2c(OC)cccc2OC)n1 (single isomer, unassigned) [Example 286.0] | 0.68 nM |
| CCO[C@@H](c1ncc(C)cn1)[C@@H](C)S(=O)(=O)Nc1nnc(-c2cccnc2)n1-c1c(OC)cccc1OC (single isomer, unassigned) [Example 108.0] | 150 nM |
| COc1cccc(OC)c1-n1c(NS(=O)(=O)[C@H](C)[C@H](OC(C)C)c2cn3ccccc3n2)nnc1-c1cccnc1 (stereo in doubt) [Example 828.0, (1R,2R)-N-(4-(2,6-dimethoxyphenyl)-5-(3-pyridinyl)-4H-1,2,4-triazol-3-yl)-1-imidazo[1,2-a]pyridin-2-yl-1-(1-methylethoxy)-2-propanesulfonamide, (1S,2S)-N-(4-(2,6-dimethoxyphenyl)-5-(3-pyridinyl)-4H-1,2,4-triazol-3-yl)-1-imidazo[1,2-a]pyridin-2-yl-1-(1-methylethoxy)-2-propanesulfonamide] | 480 nM |
| COc1cccc(OC)c1-n1c(NS(=O)(=O)[C@H](C)[C@@H](OC)c2ncc(Cl)cn2)nnc1-c1cccc(C)n1 [Example 89.0, (1S,2R)-1-(5-chloropyrimidin-2-yl)-N-(4-(2,6-dimethoxyphenyl)-5-(6-methylpyridin-2-yl)-4H-1,2,4-triazol-3-yl)-1-methoxypropane-2-sulfonamide] | 11 nM |
| (2S)-N-(4-(2,6-dimethoxyphenyl)-5-(5-methoxy-2-pyridinyl)-4H-1,2,4-triazol-3-yl)-1-(5-fluoro-2-pyrimidinyl)-2-propanesulfonamide and (2R)-N-(4-(2,6-dimethoxyphenyl)-5-(5-methoxy-2-pyridinyl)-4H-1,2,4-triazol-3-yl)-1-(5-fluoro-2-pyrimidinyl)-2-propanesulfonamide [Example 153.0] | 160 nM |
| COc1cc(-c2nnc(NS(=O)(=O)[C@@H](C)[C@H](OC)c3ncc(C)cn3)n2-c2c(OC)cccc2OC)ccn1 [Example 101.0, (1R,2S)-N-(4-(2,6-dimethoxyphenyl)-5-(2-methoxypyridin-4-yl)-4H-1,2,4-triazol-3-yl)-1-methoxy-1-(5-methylpyrimidin-2-yl)propane-2-sulfonamide] | 7 nM |
| COc1cccc(OC)c1-n1c(NS(=O)(=O)N[C@@H](C)c2ncc(F)cn2)nnc1-c1cncc(C)c1 [Example 392.0] | 48 nM |
| COc1cccc(OC)c1-n1c(NS(=O)(=O)[C@@H](C)[C@@H](O)c2ccc(C#N)cc2F)nnc1-c1cncc(C)c1 (single isomer, unassigned) [Example 343.0] | 64 nM |
| COc1cccc(OC)c1-n1c(NS(=O)(=O)[C@@H](C)[C@H](C)c2ncc(C)cn2)nnc1-c1ccnc(C)c1 [Example 85.0, (2S,3R)-N-(4-(2,6-dimethoxyphenyl)-5-(2-methylpyridin-4-yl)-4H-1,2,4-triazol-3-yl)-3-(5-methylpyrimidin-2-yl)butane-2-sulfonamide] | 5.2 nM |
| COc1cccc(OC)c1-n1c(NS(=O)(=O)CCc2ccc(Cl)cc2)nnc1-c1cccnc1 [Example 369.0, 2-(4-chlorophenyl)-N-(4-(2,6-dimethoxyphenyl)-5-(3-pyridinyl)-4H-1,2,4-triazol-3-yl)ethanesulfonamide] | 16 nM |
| COc1cccc(OC)c1-n1c(NS(=O)(=O)[C@H](C)[C@@H](OCCO)c2ncc(C)cn2)nnc1-c1cncc(C)c1 (single isomer, unassigned) [Example 394.0, (1S,2R)—N-(4-(2,6-dimethoxyphenyl)-5-(5-methylpyridin-3-yl)-4H-1,2,4-triazol-3-yl)-1-(2-hydroxyethoxy)-1-(5-methylpyrimidin-2-yl)propane-2-sulfonamide or (1R,2S)—N-(4-(2,6-dimethoxyphenyl)-5-(5-methylpyridin-3-yl)-4H-1,2,4-triazol-3-yl)-1-(2-hydroxyethoxy)-1-(5-methylpyrimidin-2-yl)propane-2-sulfonamide] | 12 nM |
| COc1cnc([C@@H](OC(C)C)[C@@H](C)S(=O)(=O)Nc2nnc(-c3cncc(C)c3)n2-c2c(OC)cccc2OC)cn1 (single isomer, unassigned) [Example 742.0, (1R,2R)-N-(4-(2,6-dimethoxyphenyl)-5-(5-methylpyridin-3-yl)-4H-1,2,4-triazol-3-yl)-1-isopropoxy-1-(5-methoxypyrazin-2-yl)propane-2-sulfonamide or (1S,2S)-N-(4-(2,6-dimethoxyphenyl)-5-(5-methylpyridin-3-yl)-4H-1,2,4-triazol-3-yl)-1-isopropoxy-1-(5-methoxypyrazin-2-yl)propane-2-sulfonamide] | 35 nM |
| COc1cccc(-c2nnc(NS(=O)(=O)C[C@H](OC)c3ccc(F)cn3)n2-c2c(OC)cccc2OC)n1 (single isomer, unassigned) [Example 330.0, (2R)—N-(4-(2,6-dimethoxyphenyl)-5-(6-methoxy-2-pyridinyl)-4H-1,2,4-triazol-3-yl)-2-(5-fluoro-2-pyridinyl)-2-methoxyethanesulfonamide or (2S)—N-(4-(2,6-dimethoxyphenyl)-5-(6-methoxy-2-pyridinyl)-4H-1,2,4-triazol-3-yl)-2-(5-fluoro-2-pyridinyl)-2-methoxyethanesulfonamide] | 0.3 nM |
| CCNC(=O)c1cccc(-c2nnc(NS(=O)(=O)[C@@H](C)Cc3ncc(F)cn3)n2-c2c(OC)cccc2OC)n1 [Example 229.0, 6-(4-(2,6-dimethoxyphenyl)-5-((((1S)-2-(5-fluoro-2-pyrimidinyl)-1-methylethyl)sulfonyl)amino)-4H-1,2,4-triazol-3-yl)-N-ethyl-2-pyridinecarboxamide, 6-(4-(2,6-dimethoxyphenyl)-5-((((1R)-2-(5-fluoro-2-pyrimidinyl)-1-methylethyl)sulfonyl)amino)-4H-1,2,4-triazol-3-yl)-N-ethyl-2-pyridinecarboxamide] | 6.3 nM |
| COc1cccc(OC)c1-n1c(NS(=O)(=O)[C@@H]2C[C@H](OC)CN(c3ncc(F)cn3)C2)nnc1-c1cccnc1 (stereo in doubt) [Example 817.0, (3R,5S)-N-(4-(2,6-dimethoxyphenyl)-5-(3-pyridinyl)-4H-1,2,4-triazol-3-yl)-1-(5-fluoro-2-pyrimidinyl)-5-methoxy-3-piperidinesulfonamide, (3S,5R)-N-(4-(2,6-dimethoxyphenyl)-5-(3-pyridinyl)-4H-1,2,4-triazol-3-yl)-1-(5-fluoro-2-pyrimidinyl)-5-methoxy-3-piperidinesulfonamide] | 16 nM |
| COc1cccc(-c2nnc(NS(=O)(=O)[C@@H](C)[C@H](O)c3ccc(F)cc3)n2-c2c(OC)cccc2OC)n1 (single isomer, unassigned) [Example 285.0] | 0.57 nM |
| COc1cnc([C@@H](OC)[C@H](C)S(=O)(=O)Nc2nnc(-c3cncc(C)c3)n2-c2c(OC)cccc2OC)cn1 (single isomer, unassigned) [Example 311.0] | 0.26 nM |
| CCc1cccc(-c2nnc(NS(=O)(=O)[C@@H](C)[C@H](OC)c3ncc(C)cn3)n2-c2c(OC)cccc2OC)n1 [Example 174.0, (1R,2S)-N-(4-(2,6-dimethoxyphenyl)-5-(6-ethylpyridin-2-yl)-4H-1,2,4-triazol-3-yl)-1-methoxy-1-(5-methylpyrimidin-2-yl)propane-2-sulfonamide] | 0.2 nM |
| COc1cccc(-c2nnc(NS(=O)(=O)[C@@H](C)[C@H](C)c3cnc(C)cn3)n2-c2c(F)cccc2F)n1 [Example 789.0, (2S,3R)-N-(4-(2,6-difluorophenyl)-5-(6-methoxy-2-pyridinyl)-4H-1,2,4-triazol-3-yl)-3-(5-methyl-2-pyrazinyl)-2-butanesulfonamide] | 1.9 nM |
| COc1cccc(OC)c1-n1c(NS(=O)(=O)[C@@H](C)[C@H](OC)c2ccc(F)cn2)nnc1-c1cncc(C)c1 (single isomer, unassigned) [Example 353.0] | 100 nM |
| COc1cccc(OC)c1-n1c(NS(=O)(=O)[C@H](C)[C@@H](OC)c2ncc(Cl)cn2)nnc1-c1cncc(C)c1 (single isomer, unassigned) [Example 560.0] | 0.88 nM |
| COc1cccc(OC)c1-n1c(NS(=O)(=O)[C@@H](C)[C@H](OC)c2ccc(F)cn2)nnc1-c1cncc(C)c1 (single isomer, unassigned) [Example 352.0] | 0.32 nM |
